Target: T1, NADH dehydrogenase [ubiquinone] 1 alpha subcomplex subunit 11 (Bos taurus, UniProt Q8HXG6)
T1 sequence (Q8HXG6 whole entry): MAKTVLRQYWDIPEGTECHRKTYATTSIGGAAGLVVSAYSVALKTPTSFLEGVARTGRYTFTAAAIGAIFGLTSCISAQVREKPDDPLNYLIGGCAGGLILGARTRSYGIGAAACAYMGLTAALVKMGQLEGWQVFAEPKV
Assay: Inhibitory activity against bovine heart mitochondrial NADH ubiquinone oxidoreductase (complex I)

Row | SMILES | IC50
1 | C[C@H]1C=C(CCCCCCCCCCCC[C@@H](O)[C@H]2CC[C@H]([C@H]3CC[C@H]([C@@H](C)O)O3)O2)C(=O)O1 | 3.1 nM
2 | CCCCCCCCCC[C@@H](O)[C@H]1CC[C@H]([C@H]2CC[C@H]([C@H](O)CCCCCCCCCCCCC3=C[C@H](C)OC3=O)O2)O1 [ISODESAACETYLUVARICIN] | 0.9 nM
